Measured values: patent US20180007899A1, “HERBICIDAL COMPOSITIONS COMPRISING OXYFLUORFEN AND HALOXYFOP” (Dow AgroSciences LLC, priority 2012, published 2018)

Assays:
Experiment in all cases: Post-emergence field trial in onion, visual weed control
Assay type in all cases: in vivo
[1] = tested on: hairy beggarticks (Bidens pilosa), BIDPI
Method: (§1) Multiple post-emergence field trials were conducted under field conditions in Colombia, Peru and Ecuador. Trial sites were located in commercially grown fields of onion (Allium spp) using standard herbicide small plot research methodology. Post-emergence trial plot size varied from 0.4 to 2 meter (m)×5 to 25 m (width×length) with 4 replicates per treatment. The onion crop was grown using normal cultural practices for fertilization, seeding, watering and maintenance to ensure good growth of the crop and the weeds.
(§2) All treatments in the post-emergence field trials were applied using a backpack compressed carbon dioxide (CO2) sprayer with flat fan nozzles calibrated to apply 400 liters per hectare (L/ha) spray volume at approximately 35 pounds per square inch (psi) nozzle pressure. Commercially available products of oxyfluorfen (GOAL® 480SC 480 grams active ingredient per liter (g ai/L) and haloxyfop-methyl (VERDICT R® 42 g ai/L) were mixed in water at appropriate formulated product rates to achieve the desired rates based on a unit area of application (hectare). Treatments were rated at 7 to 31 days after application (DAA) as compared to the untreated control plants. Visual weed control was scored on a scale of 0 to 100 percent where 0 corresponds to no injury and 100 corresponds to complete kill.
(§3) All treatment results, both for the single product and mixtures, are an average of 4 replicates. The trial sites had naturally occurring populations of weeds. The weed spectrum included, but was not limited to, AMBEL, BIDPI, BRSRA, GASPA, ELEIN, LOLTE, POANN, and SETVE.
(§4) Colby's equation was used to determine the herbicidal effects expected from the mixtures (Colby, S. R. Calculation of the synergistic and antagonistic response of herbicide combinations. Weeds 1967, 15, 20-22.).
(§5) The following equation was used to calculate the expected activity of mixtures containing two active ingredients, A and B:
(§6) A=observed efficacy of active ingredient A at the same concentration as used in the mixture.
(§7) B=observed efficacy of active ingredient B at the same concentration as used in the mixture.

[2] = tested on: bristly foxtail (Setaria verticillata), SETVE; conditions: 7 days after application
Method: as §1, §2, §3, §4, §5, §6, §7

[3] = tested on: smallflower galinsoga (Galinsoga parviflora), GASPA; conditions: 15 days after application
Method: as §1, §2, §3, §4, §5, §6, §7

[4] = tested on: poison ryegrass (Lolium temulentum), LOLTE; conditions: 15 days after application
Method: as §1, §2, §3, §4, §5, §6, §7

[5] = tested on: birdsrape mustard (Brassica rapa), BRSRA
Method: as §1, §2, §3, §4, §5, §6, §7

[6] = tested on: common ragweed (Ambrosia artemisiifolia L.), AMBEL; conditions: 15 days after application
Method: as §1, §2, §3, §4, §5, §6, §7

[7] = tested on: annual bluegrass (Poa annua L.), POAAN; conditions: 15 days after application
Method: as §1, §2, §3, §4, §5, §6, §7

[8] = tested on: goosegrass (Eleusine indica), ELEIN; conditions: 7 days after application
Method: as §1, §2, §3, §4, §5, §6, §7

[9] = 16 days after application, oxyfluorfen 120 g ai/ha, haloxyfop-methyl 0, foliar
[10] = 16 days after application, oxyfluorfen 240 g ai/ha, haloxyfop-methyl 0, foliar
[11] = 16 days after application, oxyfluorfen 360 g ai/ha, haloxyfop-methyl 0, foliar
[12] = 31 days after application, oxyfluorfen 120 g ai/ha, haloxyfop-methyl 0, foliar
[13] = 31 days after application, oxyfluorfen 240 g ai/ha, haloxyfop-methyl 0, foliar
[14] = 31 days after application, oxyfluorfen 360 g ai/ha, haloxyfop-methyl 0, foliar
[15] = oxyfluorfen 360 g ai/ha, haloxyfop-methyl 0, foliar
[16] = oxyfluorfen 120 g ai/ha, haloxyfop-methyl 0, foliar
[17] = oxyfluorfen 240 g ai/ha, haloxyfop-methyl 0, foliar
[18] = 16 days after application, oxyfluorfen 0, haloxyfop-methyl 42 g ai/ha, foliar
[19] = 31 days after application, oxyfluorfen 0, haloxyfop-methyl 42 g ai/ha, foliar
[20] = oxyfluorfen 0, haloxyfop-methyl 42 g ai/ha, foliar

In the case of `CCOc1cc(Oc2ccc(C(F)(F)F)cc2Cl)ccc1[N+](=O)[O-]` [Oxyfluorfen, 2-chloro-1-(3-ethoxy-4-nitrophenoxy)-4-(trifluoromethyl)benzene], the “Visual Control (%) Obs” value [1, 9] is reported as 49%, the “Visual Control (%) Obs” value [1, 10] is reported as 56% and the “Visual Control (%) Obs” value [1, 11] is reported as 69%. The “Visual Control (%) Obs” value [1, 12] was 54%, the “Visual Control (%) Obs” value [1, 13] was 61% and the “Visual Control (%) Obs” value [1, 14] was 69%. For the same molecule, the “Visual Control (%) Obs” value [2, 15] was 70%, the “Visual Control (%) Obs” value [3, 16] was 49% and the “Visual Control (%) Obs” value [3, 17] was 47%. The “Visual Control (%) Obs” value [3, 15] was 45%, the “Visual Control (%) Obs” value [4, 16] was 21% and the “Visual Control (%) Obs” value [4, 17] was 22%. For the same molecule, the “Visual Control (%) Obs” value [4, 15] was 22%, the “Visual Control (%) Obs” value [5, 9] was 70% and the “Visual Control (%) Obs” value [5, 10] was 74%. The “Visual Control (%) Obs” value [5, 11] was 85%, the “Visual Control (%) Obs” value [5, 12] was 74% and the “Visual Control (%) Obs” value [5, 13] was 79%. For the same molecule, the “Visual Control (%) Obs” value [5, 14] was 86%, the “Visual Control (%) Obs” value [6, 16] was 21% and the “Visual Control (%) Obs” value [6, 17] was 22%. The “Visual Control (%) Obs” value [6, 15] was 22%, the “Visual Control (%) Obs” value [7, 16] was 45% and the “Visual Control (%) Obs” value [7, 17] was 45%. For the same molecule, the “Visual Control (%) Obs” value [7, 15] was 47% and the “Visual Control (%) Obs” value [8, 15] was 47%.

With `COC(=O)C(C)Oc1ccc(Oc2ncc(C(F)(F)F)cc2Cl)cc1` (stereo not drawn) [Haloxyfop-methyl] the “Visual Control (%) Obs” value [1, 18] was 0%, the “Visual Control (%) Obs” value [1, 19] was 0% and the “Visual Control (%) Obs” value [2, 20] was 77%. For the same molecule, the “Visual Control (%) Obs” value [3, 20] was 6%, the “Visual Control (%) Obs” value [4, 20] was 4% and the “Visual Control (%) Obs” value [5, 18] was 0%. The “Visual Control (%) Obs” value [5, 19] was 0%, the “Visual Control (%) Obs” value [6, 20] was 6% and the “Visual Control (%) Obs” value [7, 20] was 5%. For the same molecule, the “Visual Control (%) Obs” value [8, 20] was 6%.
